Experimental data as given in ChEMBL document CHEMBL1143610, “Applying linear interaction energy method for rational design of noncompetitive allosteric inhibitors of the sarco- and endoplasmic reticulum calcium-ATPase” (J Med Chem, 2005).

biological target: Sarcoplasmic/endoplasmic reticulum calcium ATPase 1 (Homo sapiens, UniProt O14983); experiment: Inhibitory potency against sarco- endoplasmic reticulum calcium-ATPase in relative to thapsigargin
Sequence (O14983 whole entry, looked up): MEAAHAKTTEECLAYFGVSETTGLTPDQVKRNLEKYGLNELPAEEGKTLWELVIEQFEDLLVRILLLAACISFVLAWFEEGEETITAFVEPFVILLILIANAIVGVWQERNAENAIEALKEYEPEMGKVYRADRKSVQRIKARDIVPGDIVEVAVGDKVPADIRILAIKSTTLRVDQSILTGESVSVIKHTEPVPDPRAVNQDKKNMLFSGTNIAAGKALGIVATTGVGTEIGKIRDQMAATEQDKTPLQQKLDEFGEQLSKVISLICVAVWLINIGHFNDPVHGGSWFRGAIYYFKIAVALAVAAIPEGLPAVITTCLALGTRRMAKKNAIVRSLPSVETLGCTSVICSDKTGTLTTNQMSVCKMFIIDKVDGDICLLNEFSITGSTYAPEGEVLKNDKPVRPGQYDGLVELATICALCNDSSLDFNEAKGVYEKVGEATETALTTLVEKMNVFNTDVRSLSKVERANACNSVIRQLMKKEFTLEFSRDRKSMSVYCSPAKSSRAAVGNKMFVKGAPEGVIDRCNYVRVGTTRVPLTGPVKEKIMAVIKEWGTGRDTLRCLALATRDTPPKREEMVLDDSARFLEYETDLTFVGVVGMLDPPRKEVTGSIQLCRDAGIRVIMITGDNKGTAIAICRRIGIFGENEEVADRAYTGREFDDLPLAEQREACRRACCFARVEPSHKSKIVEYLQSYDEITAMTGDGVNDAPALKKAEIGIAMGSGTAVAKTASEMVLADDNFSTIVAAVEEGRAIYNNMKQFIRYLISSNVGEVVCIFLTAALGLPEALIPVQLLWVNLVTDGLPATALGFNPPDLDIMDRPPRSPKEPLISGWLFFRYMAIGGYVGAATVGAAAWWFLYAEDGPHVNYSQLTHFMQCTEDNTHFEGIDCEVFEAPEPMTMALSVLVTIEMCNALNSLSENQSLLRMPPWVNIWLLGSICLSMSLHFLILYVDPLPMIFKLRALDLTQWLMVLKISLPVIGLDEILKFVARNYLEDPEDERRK

Structure (SMILES) | RIC50
C/C=C(\C)C(=O)O[C@H]1C(C)=C2[C@H]([C@@H]1OC(=O)CCCCCCC)[C@@](C)(OC(C)=O)C[C@H](OC(=O)CCC)[C@@]1(OC(C)=O)[C@H]2OC(=O)[C@@]1(C)O | 0.36
C/C=C(/C)C(=O)O[C@H]1C(C)=C2[C@H]([C@@H]1OC(=O)CCCCCCC)[C@@](C)(OC(C)=O)C[C@H](OC(=O)c1ccc(N)cc1)[C@@]1(O)[C@H]2O[C@H](O)[C@@]1(C)O | 0.59
C/C=C(/C)C(=O)O[C@H]1C(C)=C2[C@H]([C@@H]1OC(=O)CCCCCCC)[C@@](C)(OC(C)=O)C[C@H](OC(=O)CCC(=O)Nc1ccc(C)c(N)c1)[C@@]1(O)[C@H]2O[C@H](O)[C@@]1(C)O | 0.003
C/C=C(/C)C(=O)O[C@H]1C(C)=C2[C@H]([C@@H]1OC(=O)CCCCC)[C@@](C)(OC(C)=O)C[C@H](OC(=O)CCC)[C@@]1(O)[C@H]2OC(=O)[C@@]1(C)O | 0.98
C/C=C(/C)C(=O)O[C@H]1C(C)=C2[C@H]([C@@H]1OC(=O)CCCCC)[C@@](C)(OC(C)=O)C[C@H](OC(=O)CCC)[C@@]1(O)[C@H]2O[C@H]2O[C@@H](OCC)O[C@]21C | 0.02
CCCCCCCC(=O)O[C@H]1[C@H]2C(=C(C)[C@@H]1OC(=O)CCCCCCC)[C@@H]1OC(=O)[C@@](C)(O)[C@@]1(O)[C@@H](OC(=O)CCC)C[C@]2(C)OC(C)=O | 0.09
C/C=C(/C)C(=O)O[C@H]1C(C)=C2[C@H]([C@@H]1OC(=O)CCCCCCC)[C@@](C)(OC(C)=O)C[C@H](OC(=O)CCCCCCCCCCN)[C@@]1(O)[C@H]2O[C@H](O)[C@@]1(C)O | 0.333
C/C=C(/C)C(=O)O[C@H]1C(C)=C2[C@H]([C@@H]1OC(=O)CCCCC)[C@@](C)(O)C[C@H](OC(=O)CCC)[C@@]1(O)[C@H]2O[C@H]2OC(C)(C)O[C@]21C | 0.002
C/C=C(/C)C(=O)O[C@H]1C(C)=C2[C@H]([C@@H]1OC(=O)CCCCCCC)[C@@](C)(OC(C)=O)C[C@H](OC(=O)CCC)[C@@]1(O)[C@H]2O[C@H]2O[C@]21C | 0.186
C/C=C(/C)C(=O)O[C@H]1C(C)=C2[C@H]([C@@H]1OC(=O)CCCCCCC)[C@@](C)(OC(C)=O)C[C@H](OC(=O)CCCCCC(=O)Nc1ccc(C)c(N)c1)[C@@]1(O)[C@H]2O[C@H](O)[C@@]1(C)O | 0.22
C/C=C(/C)C(=O)O[C@H]1C(C)=C2[C@H]([C@@H]1OC(=O)CCCCC)[C@@](C)(OC(C)=O)C[C@H](OC(=O)CCC)[C@@]1(O)[C@H]2O[C@H]2O[C@H](OCC)O[C@]21C | 0.4
C/C=C(/C)C(=O)O[C@H]1C(C)=C2[C@H]([C@@H]1OC(=O)CCCCC)[C@@](C)(OC(C)=O)C[C@H](OC(=O)CCC)[C@@]1(O)[C@H]2O[C@H]2OCO[C@]21C | 0.06
C/C=C(/C)C(=O)O[C@H]1C(C)=C2[C@H]([C@@H]1OC(=O)CCCCCCC)[C@@](C)(OC(C)=O)C[C@H](OC(=O)CCCCCNC(=O)[C@@H](N)CC(C)C)[C@@]1(O)[C@H]2O[C@H](O)[C@@]1(C)O | 0.004

The remaining lines, values ahead:

RIC50 | Structure (SMILES)
0.19 | C/C=C(/C)C(=O)O[C@H]1C(C)=C2[C@H]([C@@H]1OC(=O)CCCCCCC)[C@@](C)(OC(C)=O)C[C@H](O)[C@@]1(O)[C@H]2O[C@H](O)[C@@]1(C)O
0.08 | C/C=C(/C)C(=O)O[C@H]1C(C)=C2[C@H]([C@@H]1OC(=O)CCCCCCC)[C@@](C)(O)C[C@H](OC(=O)CCCCCCC)[C@@]1(O)[C@H]2OC(O)[C@@]1(C)O (stereo partly specified)
0.4 | C/C=C(\C)C(=O)O[C@H]1C(C)=C2[C@H]([C@@H]1OC(=O)CCCCCCC)[C@@](C)(OC(C)=O)C[C@H](OC(=O)CCC)[C@@]1(O)[C@H]2OC(=O)[C@@]1(C)OC(C)=O
0.015 | CCCCCCCC(=O)O[C@@H]1C(=O)C(C)=C2[C@H]1[C@@](C)(OC(C)=O)C[C@H](OC(=O)CCC)[C@@]1(O)[C@H]2OC(=O)[C@@]1(C)O
0.54 | C/C=C(/C)C(=O)O[C@H]1C(C)=C2[C@H]([C@@H]1OC(=O)CCCCCCC)[C@@](C)(OC(C)=O)C[C@H](OC(=O)/C=C/c1ccc(NC(=O)OC(C)(C)C)cc1)[C@@]1(O)[C@H]2O[C@H](O)[C@@]1(C)O
0.07 | C/C=C(\C)C(=O)O[C@H]1C(C)=C2[C@H]([C@@H]1OC(=O)CCCCCCC)[C@@](C)(OC(C)=O)C[C@H](OC(=O)CCC)[C@@]1(OC(C)=O)[C@H]2OC(=O)[C@@]1(C)OC(C)=O
0.68 | C/C=C(/C)C(=O)O[C@H]1C(C)=C2[C@H]([C@@H]1OC(=O)CCCCCCC)[C@@](C)(OC(C)=O)C[C@H](OC(=O)CCc1ccc(N)cc1)[C@@]1(O)[C@H]2O[C@H](O)[C@@]1(C)O
0.85 | C/C=C(/C)C(=O)O[C@H]1C(C)=C2[C@H]([C@@H]1OC(=O)CCCCC)[C@@](C)(OC(C)=O)C[C@H](OC(=O)CCC)[C@@]1(O)[C@H]2O[C@H](OCC)[C@@]1(C)O
